According to PubChem BioAssay (NCI):
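Method: 48-hour compound exposure of cells in 96-well plates, five concentrations, linear interpolation of endpoints. Abbreviation: GI50, concentration required for 50% inhibition of growth. TGI: concentration producing complete growth inhibition.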

Tests used:
Assay in all cases: NCI tumour cell line growth inhibition, 48 h
[1] = test system: A498 renal
[2] = test system: HL-60(TB) leukemia
[3] = test system: MALME-3M melanoma
[4] = test system: MDA-N
[5] = test system: NCI/ADR-RES ovarian
[6] = test system: OVCAR-5 ovarian
[7] = test system: OVCAR-8 ovarian
[8] = test system: SF-295 CNS
[9] = test system: SK-MEL-5 melanoma
[10] = test system: SNB-75 CNS

Q: What does the source list for `Clc1ccc2oc(CCc3ccccc3)nc2c1`?
A: TGI [1]: 60 µM; TGI [2]: > 100 µM; TGI [3]: > 100 µM; TGI [4]: > 100 µM; TGI [5]: > 100 µM; TGI [6]: > 100 µM; TGI [7]: > 100 µM; TGI [8]: > 100 µM; TGI [9]: 55.4 µM; TGI [10]: 62.8 µM

Q: Which TGI [1] does the source give for `CC(C)(C)OC(=O)NCCCCC(N)NC(=O)c1ccccc1` (stereo not drawn) here?
A: The TGI was over 100 µM.

Q: And the TGI [3]?
A: The TGI was over 100 µM.

Q: What about the TGI [4] of the same compound?
A: The TGI was over 100 µM.

Q: And the TGI [5]?
A: Its TGI is over 100 µM.

Q: And the TGI [6]?
A: Its TGI is over 100 µM.

Q: What about the TGI [7] of the same compound?
A: The TGI was over 100 µM.

Q: What about the TGI [8] of the same compound?
A: The TGI was over 100 µM.

Q: And the TGI [9]?
A: The TGI was over 100 µM.

Q: What about the TGI [10] of the same compound?
A: The TGI was over 100 µM.

Q: How did the TGI [1] turn out when `CC(C)/C(Cl)=N/OC(=O)Nc1ccc(Cl)c(Cl)c1` was run?
A: Its TGI is 33.5 µM.

Q: What about the TGI [2] of the same compound?
A: Its TGI is 6.21 µM.

Q: What about the TGI [3] of the same compound?
A: The TGI was 4.33 µM.

Q: And the TGI [4]?
A: The TGI was 10.8 µM.

Q: And the TGI [5]?
A: Its TGI is 32 µM.

Q: And the TGI [6]?
A: The TGI was 30.2 µM.

Q: What about the TGI [7] of the same compound?
A: Its TGI is 32.9 µM.

Q: And the TGI [8]?
A: The TGI was 32.2 µM.

Q: And the TGI [9]?
A: Its TGI is 27.3 µM.

Q: What about the TGI [10] of the same compound?
A: The TGI was 35.3 µM.

Q: `O=C1N[C@@H]2C(=C[C@H](O)[C@@H](O)[C@H]2O)c2cc3c(c(O)c21)OCO3` was tested. Which TGI [1] did it give?
A: The TGI was 0.106 µM.

Q: What about the TGI [2] of the same compound?
A: Its TGI is 0.0862 µM.

Q: What about the TGI [3] of the same compound?
A: Its TGI is 0.0535 µM.

Q: What about the TGI [5] of the same compound?
A: The TGI was 0.0972 µM.

Q: What about the TGI [6] of the same compound?
A: Its TGI is 0.294 µM.

Q: What about the TGI [7] of the same compound?
A: Its TGI is 0.0613 µM.

Q: And the TGI [8]?
A: Its TGI is 0.245 µM.

Q: And the TGI [9]?
A: Its TGI is 0.0774 µM.

Q: What about the TGI [10] of the same compound?
A: The TGI was 0.0813 µM.

Q: Which results are given for `CN(C)CCNC(=O)c1cccc2c(NC(CCC(N)=O)C(=O)O)c3ccccc3nc12` (stereo not drawn)?
A: TGI [1]: 37.2 µM; TGI [3]: 19.5 µM; TGI [4]: 31.4 µM; TGI [5]: > 100 µM; TGI [6]: > 100 µM; TGI [7]: > 100 µM; TGI [8]: 25.5 µM; TGI [9]: 31.4 µM; TGI [10]: 30.8 µM

Q: With `CSc1c(C#N)c(N)n(-c2ccc(Cl)cc2)c(=O)c1C#N` as the compound, how does the TGI [1] read?
A: The TGI was over 100 µM.

Q: And the TGI [2]?
A: The TGI was over 100 µM.

Q: And the TGI [3]?
A: The TGI was over 100 µM.

Q: And the TGI [4]?
A: The TGI was over 100 µM.

Q: What about the TGI [5] of the same compound?
A: The TGI was over 100 µM.

Q: What about the TGI [6] of the same compound?
A: The TGI was over 100 µM.

Q: And the TGI [7]?
A: The TGI was over 100 µM.

Q: And the TGI [9]?
A: Its TGI is over 100 µM.

Q: And the TGI [10]?
A: The TGI was over 100 µM.

Q: For `CCOC(=O)c1c[nH]c2ccc3c(c2c1=O)S(=O)(=O)CC3` (tested in a mixture with another compound), which TGI [1] is on record?
A: Its TGI is over 100 µM.

Q: What about the TGI [2] of the same compound?
A: Its TGI is over 100 µM.

Q: And the TGI [3]?
A: Its TGI is over 100 µM.

Q: And the TGI [5]?
A: The TGI was over 100 µM.

Q: And the TGI [6]?
A: Its TGI is over 100 µM.

Q: What about the TGI [7] of the same compound?
A: Its TGI is over 100 µM.

Q: And the TGI [8]?
A: Its TGI is over 100 µM.

Q: What about the TGI [9] of the same compound?
A: The TGI was over 100 µM.

Q: What about the TGI [10] of the same compound?
A: The TGI was over 100 µM.

Q: Which results are given for `O=c1[nH]c(Nc2nc3ccccc3[nH]2)nc(O)c1Cc1ccccc1`?
A: TGI [1]: > 100 µM; TGI [2]: > 100 µM; TGI [3]: > 100 µM; TGI [4]: > 100 µM; TGI [5]: > 100 µM; TGI [7]: > 100 µM; TGI [9]: > 100 µM; TGI [10]: 86.4 µM

Q: With `COc1cc(O)c2c(=O)c(OC)c(-c3ccc(OC)c(OC)c3)oc2c1` as the compound, how does the TGI [1] read?
A: Its TGI is over 100 µM.

Q: And the TGI [2]?
A: Its TGI is over 100 µM.

Q: What about the GI50 [3] of the same compound?
A: The GI50 was over 100 µM.

Q: And the TGI [3]?
A: The TGI was over 100 µM.

Q: And the TGI [4]?
A: The TGI was over 100 µM.

Q: What about the GI50 [5] of the same compound?
A: Its GI50 is 62.7 µM.

Q: And the TGI [5]?
A: Its TGI is over 100 µM.

Q: And the GI50 [6]?
A: The GI50 was 23 µM.

Q: What about the TGI [6] of the same compound?
A: The TGI was over 100 µM.

Q: What about the GI50 [7] of the same compound?
A: The GI50 was over 100 µM.

Q: And the TGI [7]?
A: Its TGI is over 100 µM.

Q: What about the GI50 [8] of the same compound?
A: Its GI50 is over 100 µM.

Q: And the TGI [8]?
A: The TGI was over 100 µM.

Q: What about the GI50 [9] of the same compound?
A: Its GI50 is 82 µM.

Q: What about the TGI [9] of the same compound?
A: The TGI was over 100 µM.

Q: What does the source list for `CN1CCN(c2ccc3c(c2)NCC(=O)N3)CC1`?
A: TGI [1]: > 100 µM; TGI [2]: > 100 µM; TGI [3]: > 100 µM; TGI [5]: > 100 µM; TGI [6]: > 100 µM; TGI [7]: > 100 µM; TGI [8]: > 100 µM; TGI [9]: > 100 µM; TGI [10]: > 100 µM

Q: What does the source list for `CN1CCN(P2(=S)Oc3ccc4ccccc4c3-c3c(ccc4ccccc34)O2)CC1`?
A: TGI [1]: > 100 µM; TGI [2]: 39.9 µM; TGI [3]: 50.8 µM; TGI [5]: > 71 µM; TGI [6]: > 100 µM; TGI [7]: > 100 µM; TGI [8]: > 100 µM; TGI [9]: 53.2 µM; TGI [10]: > 100 µM

Q: Which TGI [1] does the source give for `Cn1c(=O)n2n(c1=O)C(C)(C13CC4CC(CC(C4)C1)C3)C13CC4CC(CC1C4)CC23` (stereo not drawn) here?
A: The TGI was over 100 µM.

Q: And the TGI [2]?
A: The TGI was over 100 µM.

Q: What about the TGI [4] of the same compound?
A: The TGI was over 100 µM.

Q: What about the TGI [5] of the same compound?
A: Its TGI is over 100 µM.

Q: What about the TGI [6] of the same compound?
A: The TGI was over 100 µM.

Q: What about the TGI [7] of the same compound?
A: Its TGI is over 100 µM.

Q: And the TGI [8]?
A: The TGI was over 100 µM.

Q: What about the TGI [9] of the same compound?
A: The TGI was over 100 µM.

Q: And the TGI [10]?
A: The TGI was over 100 µM.

Q: `O=C(O)c1ccccc1N=Nc1c(O)c(S(=O)(=O)O)cc2cc(S(=O)(=O)O)ccc12` was tested. Which TGI [1] did it give?
A: The TGI was over 100 µM.

Q: And the TGI [2]?
A: Its TGI is over 100 µM.

Q: What about the TGI [4] of the same compound?
A: The TGI was over 100 µM.

Q: What about the TGI [6] of the same compound?
A: The TGI was over 100 µM.

Q: And the TGI [7]?
A: Its TGI is over 100 µM.

Q: And the TGI [8]?
A: Its TGI is over 100 µM.

Q: And the TGI [9]?
A: Its TGI is over 100 µM.

Q: And the TGI [10]?
A: The TGI was over 100 µM.

Q: `O=C1Cc2c([nH]c3ccc(C(=O)O)cc23)-c2ccccc2N1` was tested. Which TGI [1] did it give?
A: The TGI was over 100 µM.

Q: And the TGI [2]?
A: Its TGI is over 100 µM.

Q: What about the TGI [3] of the same compound?
A: Its TGI is over 100 µM.

Q: And the TGI [4]?
A: The TGI was over 100 µM.

Q: And the TGI [5]?
A: The TGI was over 100 µM.

Q: And the TGI [6]?
A: Its TGI is over 100 µM.

Q: And the TGI [7]?
A: Its TGI is over 100 µM.

Q: And the TGI [8]?
A: Its TGI is over 100 µM.

Q: What does the source list for `Nc1ncnc2c1ncn2[C@@H]1O[C@H](COC(c2ccccc2)(c2ccccc2)c2ccccc2)[C@@H](OC(=S)Oc2ccccc2)[C@@H]1F`?
A: TGI [1]: 35.2 µM; TGI [2]: 13.3 µM; TGI [5]: 18.5 µM; TGI [6]: 37 µM; TGI [7]: 11.9 µM; TGI [8]: 31.1 µM; TGI [9]: 16.8 µM; TGI [10]: 32.6 µM

Q: With `COc1ccc(CNc2cc(=O)n(C)c(=O)[nH]2)cc1` as the compound, how does the TGI [1] read?
A: Its TGI is over 100 µM.

Q: What about the TGI [3] of the same compound?
A: The TGI was over 100 µM.

Q: And the TGI [4]?
A: The TGI was over 100 µM.

Q: And the TGI [5]?
A: The TGI was over 100 µM.

Q: And the TGI [6]?
A: The TGI was over 100 µM.

Q: What about the TGI [7] of the same compound?
A: The TGI was over 100 µM.

Q: What about the TGI [8] of the same compound?
A: Its TGI is over 100 µM.

Q: What about the TGI [9] of the same compound?
A: Its TGI is over 100 µM.

Q: And the TGI [10]?
A: The TGI was over 100 µM.
